Laboratory results: US10577357B2, “Inhibitors of LDLR-PCSK9 protein-protein interaction and methods of their use” (The Texas A&M University System, priority 2016, dated 2020)

Target: T1, PCSK9 (Homo sapiens, UniProt Q8NBP7)
T1 construct: host or cells: exogenous PCSK9 protein added to HepG2 cells
Experiment: LDL-uptake assay (BODIPY-LDL) in HepG2 cells with added PCSK9
Assay type: cell-based
Details: inhibitors 50 μM preincubated with 10 μg/mL PCSK9 for 30 min, BODIPY-LDL 10 μg/mL, quintuplicate
Method: LDL-uptake assay was performed in quintuplicate following a published procedure with some modifications. HepG2 cells were seeded into 96-well plate at a density of 3×10^4 cells/well in DMEM with 10% FBS medium (Sigma-Aldrich). After a period of 24 h, the medium was aspirated and cells were washed with PBS twice. Cells were treated with 10% lipoprotein-deficient serum (Gemini) in DMEM and incubated for another 24 h. After washing cells with PBS twice, cells were incubated 2 h with either 100 μL of Pep2-8 (30 μM), inhibitors at various concentrations (50 μM), or negative control (DMSO), which were preincubated with 10 μg/mL PCSK9 in 10% lipoprotein-deficient DMEM at 0.5% DMSO level for 30 min prior. A positive control was also performed, in a similar fashion but in the absence of PCSK9. BODIPY-LDL (10 μg/mL, Invitrogen) was added to each well and cells were incubated for another 3 h. Cells were washed three times with PBS, and fluorescent intensity was measured on Synergy H4 plate reader (Biotek) with excitation and emission wavelength at 488 and 520 nm, respectively.

T1 sequence (Q8NBP7 153-692): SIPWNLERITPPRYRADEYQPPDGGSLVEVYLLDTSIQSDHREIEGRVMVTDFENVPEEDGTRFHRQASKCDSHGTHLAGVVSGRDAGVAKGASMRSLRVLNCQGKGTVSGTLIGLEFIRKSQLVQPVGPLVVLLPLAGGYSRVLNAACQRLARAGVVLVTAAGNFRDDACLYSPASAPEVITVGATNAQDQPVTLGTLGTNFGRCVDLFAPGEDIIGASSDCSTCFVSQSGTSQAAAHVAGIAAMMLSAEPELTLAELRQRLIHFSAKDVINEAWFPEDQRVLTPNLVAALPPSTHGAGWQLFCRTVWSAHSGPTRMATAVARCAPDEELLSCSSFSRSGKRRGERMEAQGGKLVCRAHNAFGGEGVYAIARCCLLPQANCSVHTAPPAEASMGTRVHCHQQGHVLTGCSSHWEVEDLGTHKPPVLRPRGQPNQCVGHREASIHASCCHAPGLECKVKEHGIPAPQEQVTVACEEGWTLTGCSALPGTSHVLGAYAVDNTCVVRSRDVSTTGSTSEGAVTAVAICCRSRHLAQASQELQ
T1 sequence (Q8NBP7 31-152 partner limits assumed): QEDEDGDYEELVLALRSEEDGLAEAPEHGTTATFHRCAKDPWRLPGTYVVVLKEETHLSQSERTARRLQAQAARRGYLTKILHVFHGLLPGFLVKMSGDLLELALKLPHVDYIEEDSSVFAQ

Row | SMILES | activity at 50 µM
1 | CC(C)C[C@H](C(=O)N1CCN([C@@H](CC(N)=O)C(=O)N[C@@H](CCCNC(=N)N)C(=O)NC2CCOC2=O)CC1)N1C(=O)N[C@@H](CC(=O)O)C1=O (stereo partly shown) [KB2234] | 8.7 ± 5.9%
2 | CC(C)C[C@H](C(=O)N1CCN([C@@H](CC(N)=O)C(=O)N[C@@H](CCCNC(=N)N)C(=O)NCCC(=O)O)CC1)N1C(=O)N[C@@H](CC(=O)O)C1=O [KB2274] | 13.5 ± 4.3%
3 | N=C(N)NCCC[C@@H](NC(=O)[C@H](CC(=O)O)N1CCN(C(=O)[C@H](CC(N)=O)N2C(=O)N[C@@H](CCC(N)=O)C2=O)CC1)C(=O)NCCC(=O)O [KB2275] | 8.6 ± 1.5%
4 | CC(C)C[C@@H](C(=O)N[C@H](CCCNC(=N)N)C(=O)NCCC(=O)O)N1CCN(C(=O)[C@H](CS)N2C(=O)N[C@H](CC(N)=O)C2=O)CC1 [KB2276] | 19 ± 4.7%
